Marks after values point to notes of the source that are not given here.
Tested on: hypertensive OA patients
From the text: Method: A 4-week, multicenter, randomized, double-blind, double-dummy, parallel group study of hypertensive OA patients aged ≥50 years (office BP ≤140/90 mmHg) on stable antihypertensive treatment. […] The primary outcome measure was the change from baseline (BL) at Week 4 in 24-hour mean ambulatory systolic BP (MASBP) in the intent-to-treat (ITT) population using ANCOVA. The secondary analyses included 24-hour mean ambulatory diastolic BP (MADBP […]. In addition, a post-hoc subgroup analysis was performed to evaluate the primary and secondary analysis at Week 4 (using ANCOVA) for patients exclusively on ACE inhibitors as antihypertensive drug.

[1] = change from baseline, lumiracoxib (n=140) vs ibuprofen (n=132), patients exclusively on ACE-inhibitors, p<0.001

Clinically relevant increase (>= 5 mm Hg increase in 24 h MADBP and/or >= 10 mm Hg increase in 24h MASBP), number of patients (human, in vivo, 4 weeks) | Clinically relevant increase (>= 5 mm Hg increase in 24 h MADBP and/or >= 10 mm Hg increase in 24h MASBP), share of patients (human, in vivo, 4 weeks) | SMILES | increase in MASBP (change from BL at Week 4, 24-hour MASBP, ibuprofen 600 mg tid) | decrease in MASBP (change from BL at Week 4, 24-hour MASBP, lumiracoxib 100 mg od) | 24 h MADBP Difference in LSM (95% CI) [1] | 24 h MASBP Difference in LSM (95% CI) [1] | 24-hour MADBP, estimated treatment difference (lumiracoxib 100 mg od vs ibuprofen 600 mg tid, Week 4, [95% CI: -2.7, -1.3], p<0.001)
– | – | CC(C)Cc1ccc(C(C)C(=O)O)cc1 (stereo not shown) [ibuprofen] | 2.2 mmHg | – | – | – | –
13 patients | 9.3% | Cc1ccc(Nc2c(F)cccc2Cl)c(CC(=O)O)c1 [lumiracoxib, 5-methyl-2-(2'-chloro-6'-fluoroanilino)phenylacetic acid] | – | 2.7 mmHg | -3.9 (-5.1,-2.7)* | -7.5 (-9.6, -5.5)* | -2 mmHg

— patent EP2014284A1, “Pharmaceutical compositions and uses” (NOVARTIS AG, priority 2007, dated 2009)
